Like-named read-outs stand apart in the source and are kept apart here.
How the values were obtained:
[1] = intravenous, concentrations required to deliver therapeutic doses of paclitaxel; cited from earlier work
HCT116 cells = assay: In vitro cytotoxicity measured by the cell colony formation assay; assay type: cell-based; settings: colonies counted after 7 days, read-out: IN VITRO ID 50 (nm) HCT116
Outline: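 Colony-forming survival was scored 7 days after a 72 h, 37 °C compound exposure followed by washout into fresh medium.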

[2] = HCT116 colony formation, 72 h drug incubation, Example 15, C-7 substituted acetate/C-10 hydroxy taxanes
[3] = HCT116 colony formation, 72 h drug incubation, Example 10, C-10 ester/C-7 hydroxy taxanes
[4] = HCT116 cells, 72 h incubation with drug, ID50 = drug concentration producing 50% inhibition of colony formation

CC(=O)OCC(COC(C)=O)OC(C)=O [triacetin, glyceryl triacetate]
toxicity to mice [1]: toxic

CSCC(=O)O[C@H]1C[C@H]2OC[C@@]2(OC(C)=O)C2[C@H](OC(=O)c3ccccc3)[C@]3(O)C[C@H](OC(=O)[C@H](O)[C@@H](NC(=O)OC(C)(C)C)c4ccco4)C(C)=C([C@@H](O)C(=O)[C@@]21C)C3(C)C (stereo partly drawn) [Compound 5600]
IC50 (HCT116 cells; [2]): < 1 nM

CCCC(=O)O[C@H]1C(=O)[C@@]2(C)C([C@H](OC(=O)c3ccccc3)[C@]3(O)C[C@H](OC(=O)[C@H](O)[C@@H](NC(=O)OC(C)(C)C)c4cccnc4)C(C)=C1C3(C)C)[C@]1(OC(C)=O)CO[C@@H]1C[C@@H]2O (stereo partly drawn) [Compound 0966]
IC50 (HCT116 cells; [3]): < 10 nM

C/C=C/C(=O)N[C@@H](c1ccco1)[C@@H](O)C(=O)O[C@H]1C[C@@]2(O)[C@@H](OC(=O)c3ccccc3)C3[C@](C)(C(=O)[C@H](OC(=O)Nc4ccccc4)C(=C1C)C2(C)C)[C@@H](O)C[C@H]1OC[C@@]31OC(C)=O (stereo partly drawn) [Compound 6024]
IC50 (HCT116 cells; HCT116 cells, colony formation, 72 h incubation with drug, ID50 = drug concentration producing 50% inhibition of colony formation): < 1 nM

COC(=O)O[C@H]1C(=O)[C@@]2(C)C([C@H](OC(=O)c3ccccc3)[C@]3(O)C[C@H](OC(=O)[C@H](O)[C@@H](NC(=O)OC(C)(C)C)c4ccco4)C(C)=C1C3(C)C)[C@]1(OC(C)=O)CO[C@@H]1C[C@@H]2O (stereo partly drawn) [Compound 2666]
IC50 (HCT116 cells; [4]): < 1 nM

C/C=C/C(=O)N[C@@H](c1ccco1)[C@@H](O)C(=O)O[C@H]1C[C@@]2(O)[C@@H](OC(=O)c3ccccc3)C3[C@](C)(C(=O)[C@H](O)C(=C1C)C2(C)C)[C@@H](OC(=O)COC)C[C@H]1OC[C@@]31OC(C)=O (stereo partly drawn) [Compound 5835]
IC50 (HCT116 cells; [2]): < 1 nM

COC(=O)O[C@H]1C[C@H]2OC[C@@]2(OC(C)=O)C2[C@H](OC(=O)c3ccccc3)[C@]3(O)C[C@H](OC(=O)[C@H](O)[C@@H](NC(=O)OCC(C)C)c4ccoc4)C(C)=C([C@@H](O)C(=O)[C@@]21C)C3(C)C (stereo partly drawn) [Compound 4584]
IC50 (HCT116 cells; [4]): < 10 nM

CCC(=O)O[C@H]1C(=O)[C@@]2(C)C([C@H](OC(=O)c3ccccc3)[C@]3(O)C[C@H](OC(=O)[C@H](O)[C@H](C=C(C)C)NC(=O)c4ccccc4)C(C)=C1C3(C)C)[C@]1(OC(C)=O)CO[C@@H]1C[C@@H]2O (stereo partly drawn) [Compound 0625]
IC50 (HCT116 cells; [3]): < 1 nM

C/C=C/C(=O)N[C@@H](c1ccco1)[C@@H](O)C(=O)O[C@H]1C[C@@]2(O)[C@@H](OC(=O)c3ccccc3)C3[C@](C)(C(=O)[C@H](OC(=O)CCC)C(=C1C)C2(C)C)[C@@H](O)C[C@H]1OC[C@@]31OC(C)=O (stereo partly drawn) [Compound 3994]
IC50 (HCT116 cells; [3]): < 1 nM

— US6638973B2, “Taxane formulations” (FSU Research Foundation, Inc., priority 2000, dated 2003)
